Drawing on patent US10752612B2, “PLK4 inhibitors” (LUDWIG INSTITUTE FOR CANCER RESEARCH LTD, priority 2015, dated 2020), this text covers IC50 for 59 compounds.

A value given as a limit tells only on which side of the number the result lay.

The experiment deals with T1, human Plk4 kinase domain (aa 2-275) (Homo sapiens, UniProt O00444).
T1 construct: purified 6×His-tagged human Plk4 kinase domain (aa 2-275); 6xHis; made in house; host or cells: E. coli
T1 sequence (O00444 2-275): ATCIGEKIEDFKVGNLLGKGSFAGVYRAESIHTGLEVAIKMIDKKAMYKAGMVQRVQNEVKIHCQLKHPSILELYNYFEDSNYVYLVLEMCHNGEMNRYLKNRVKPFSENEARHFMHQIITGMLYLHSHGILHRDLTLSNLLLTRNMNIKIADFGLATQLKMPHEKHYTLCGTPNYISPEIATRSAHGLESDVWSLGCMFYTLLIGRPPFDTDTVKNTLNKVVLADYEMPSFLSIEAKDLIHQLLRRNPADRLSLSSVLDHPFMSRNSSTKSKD
The experiment is described as follows: Plk4 kinase assay (ADP-Glo). The class given is biochemical. As to conditions: Table 1. The method, boiled down:
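Enzyme at 2.5-10 nM final, pH 8.0, reacted 4-16 hours at 25° C; ADP generation read by ADP-Glo luminescence. Ki derived from IC50 by Cheng-Prusoff or, for tight binders, Copeland formalism.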
(ADP-Glo turns the ADP formed in a reaction into a luminescent signal.)
Turning to `Cc1cc(Nc2nc(Sc3ccc(NC(=O)C4CC4)cc3)nc(N3CCN(CCN(C)C)CC3)c2C)n[nH]1`, the IC50 – broadly, the concentration that inhibits the measured activity by half – is under 1000 nM.

Compound `Cc1cc(Nc2nc(Sc3ccc(NC(=O)C4CC4)cc3)nc(N(C)C)c2C)n[nH]1` displayed an IC50 of under 1000 nM.

Regarding `CCN(C)c1nc(Sc2ccc(NC(=O)C3CC3)cc2)nc(Nc2cc(C)[nH]n2)c1C`, the IC50 was under 1000 nM.

`CCN(CC)c1nc(Sc2ccc(NC(=O)C3CC3)cc2)nc(Nc2cc(C)[nH]n2)c1C` came in with a half-maximal inhibitory concentration (IC50) of under 1000 nM.

With `Cc1cc(Nc2nc(Sc3ccc(NC(=O)C4CC4)cc3)nc(Cl)c2C)n[nH]1`, the IC50 was under 1000 nM.

Turning to `Cc1cc(Nc2nc(Sc3ccc(NC(=O)C4CCCC4)cc3)nc(N(C)C)c2C)n[nH]1`, the IC50 was under 1000 nM.

The compound `CSc1c(Nc2cc(C)[nH]n2)nc(Sc2ccc(NC(=O)C3CC3)cc2)nc1N1CCN(C)CC1` gave an IC50 of 100 to 1000 nM.

`CC(=O)Nc1ccc(Sc2nc(Nc3cc(C)[nH]n3)c(C)c(N3CCC(O)CC3)n2)cc1` gave an IC50 of under 1000 nM.

`CC(=O)Nc1ccc(Sc2nc(Nc3cc(C)[nH]n3)c(C)c(N3CCCC3)n2)cc1`: the IC50 is under 1000 nM.

The compound `CC(=O)Nc1ccc(Sc2nc(Nc3cc(C)[nH]n3)c(C)c(N3CCCCCC3)n2)cc1` came in with a concentration for half-maximal inhibition (IC50) of under 1000 nM.

As to `Cc1cc(Nc2nc(Sc3ccc(NC(=O)C4CC4)cc3)nc(N3CCN(C)CC3)c2Cl)n[nH]1`, the IC50 lay within 100 to 1000 nM.

With `CC(=O)Nc1ccc(Sc2nc(Nc3cc(C)[nH]n3)c(C)c(N3CC=CCC3)n2)cc1`, the IC50 is under 1000 nM.

On to `CC(=O)Nc1ccc(Sc2nc(Nc3cc(C)[nH]n3)c(C)c(N3CC=C(F)CC3)n2)cc1`, for which the IC50 was under 1000 nM.

`CC(=O)Nc1ccc(Sc2nc(Nc3cc(C)[nH]n3)c(C)c(N3CCC(C)CC3)n2)cc1` displayed an IC50 of under 1000 nM.

In the case of `CC(=O)Nc1ccc(Sc2nc(Nc3cc(C)[nH]n3)c(Cl)c(N3CCN(C)CC3)n2)cc1`, the IC50 is under 1000 nM.

As for `CSc1nc(Nc2cc(C)[nH]n2)c(C)c(N2CCCCC2)n1`, the IC50 is under 1000 nM.

`Cc1cc(Nc2nc(Sc3ccccc3)nc(N3CCCCC3)c2C)n[nH]1` displayed an IC50 of under 1000 nM.

Consider `Cc1ccc(Sc2nc(Nc3cc(C)[nH]n3)c(C)c(N3CCCCC3)n2)cc1`, for which the IC50 was under 1000 nM.

In the case of `Cc1cc(Nc2nc(Sc3ccc(N)cc3)nc(N3CCCCC3)c2C)n[nH]1`, the IC50 is under 1000 nM.

`CNC(=O)Nc1ccc(Sc2nc(Nc3cc(C)[nH]n3)c(C)c(N3CCCCC3)n2)cc1` displayed an IC50 of under 1000 nM.

`COC(=O)Nc1ccc(Sc2nc(Nc3cc(C)[nH]n3)c(C)c(N3CCCCC3)n2)cc1`: the IC50 is under 1000 nM.

As for `CC(=O)Nc1ccc(Sc2nc(Nc3cc(C)[nH]n3)c(C)c(N3CCC(F)(F)CC3)n2)cc1`, the half-maximal inhibitory concentration (IC50) was under 1000 nM.

Compound `CC(=O)Nc1ccc(Sc2nc(Nc3cc(C)[nH]n3)c(C)c(N3CCC(F)CC3)n2)cc1` came in with an IC50 of under 1000 nM.

In turn, `COc1c(Nc2cc(C)[nH]n2)nc(Sc2ccc(S(=O)(=O)Cc3ccccc3)cc2)nc1N1CCC(CCN2CCN(C)CC2)CC1` yielded an IC50 of under 1000 nM.

The compound `COc1c(Nc2cc(C)[nH]n2)nc(Sc2ccc(S(=O)(=O)Cc3ccccc3)cc2)nc1N1CCN(CCN2CCCCCC2)CC1` yielded an IC50 of under 1000 nM.

For `COc1c(Nc2cc(C)[nH]n2)nc(Sc2ccc(NC(C)=O)cc2)nc1N1CCN(C2CCN(C)CC2)CC1`, the IC50 was under 1000 nM.

The compound `COc1c(Nc2cc(C)[nH]n2)nc(Sc2ccc(NC(C)=O)cc2)nc1N1CCN(C)CC1` came in with an IC50 of under 1000 nM.

Consider `CCOc1c(Nc2cc(C)[nH]n2)nc(Sc2ccc(NC(C)=O)cc2)nc1N1CCN(C2CCN(C)CC2)CC1`, for which the IC50 lay in the range of 100 to 1000 nM.

In turn, `CC(=O)Nc1ccc(Sc2nc(Nc3cc(C)[nH]n3)c(Cl)c(N3CCCCC3)n2)cc1` showed an IC50 of under 1000 nM.

With `Cc1cc(Nc2nc(Sc3ccc(N(C)C)cc3)nc(N3CCCCC3)c2C)n[nH]1`, the IC50 is under 1000 nM.

`CC(=O)Nc1ccc(Sc2nc(Nc3cc(C)[nH]n3)cc(N3CCCCC3)n2)cc1` registered an IC50 of under 1000 nM.

`COc1c(Nc2cc(C)[nH]n2)nc(Sc2ccc(NC(C)=O)cc2)nc1N1CCNCC1`: the IC50 is under 1000 nM.

With `CCN(CC)c1nc(Sc2ccc(NC(C)=O)cc2)nc(Nc2cc(C)[nH]n2)c1OC`, the IC50 is under 1000 nM.

`CCN(C)c1nc(Sc2ccc(NC(C)=O)cc2)nc(Nc2cc(C)[nH]n2)c1OC` showed an IC50 of under 1000 nM.

`COc1c(Nc2cc(C)[nH]n2)nc(Sc2ccc(NC(C)=O)cc2)nc1N(C)C` displayed an IC50 of under 1000 nM.

Take `COc1c(Nc2cc(C)[nH]n2)nc(Sc2ccc(NC(C)=O)cc2)nc1N1CCOCC1`: the IC50 was under 1000 nM.

`COc1c(Nc2cc(C)[nH]n2)nc(Sc2ccc(NC(C)=O)cc2)nc1N1CCN(C(C)=O)CC1` came in with an IC50 of under 1000 nM.

Take `COCCN1CCN(c2nc(Sc3ccc(NC(C)=O)cc3)nc(Nc3cc(C)[nH]n3)c2OC)CC1`: the IC50 was under 1000 nM.

Take `COc1c(Nc2cc(C)[nH]n2)nc(Sc2ccc(NC(C)=O)cc2)nc1N1CCCC1`: the IC50 is under 1000 nM.

`COc1c(Nc2cc(C)[nH]n2)nc(Sc2ccc(NC(C)=O)cc2)nc1N1CCCCCC1` registered an IC50 of 100 to 1000 nM.

The compound `COc1c(Nc2cc(C)[nH]n2)nc(Sc2ccc(NC(C)=O)cc2)nc1N1CCC(C)CC1` registered an IC50 of 100 to 1000 nM.

Take `COc1c(Nc2cc(C)[nH]n2)nc(Sc2ccc(NC(C)=O)cc2)nc1N(C)C(C)C`: the IC50 is under 1000 nM.

In turn, `CC(=O)Nc1ccc(Sc2nc(Nc3cc(C)[nH]n3)c(C)c(N3CCCCC3C)n2)cc1` (centres unmarked) returned an IC50 of under 1000 nM.

The compound `CCN1CCN(c2nc(Sc3ccc(NC(C)=O)cc3)nc(Nc3cc(C)[nH]n3)c2C)CC1` registered an IC50 of under 1000 nM.

`COCC(=O)N1CCN(c2nc(Sc3ccc(NC(C)=O)cc3)nc(Nc3cc(C)[nH]n3)c2OC)CC1` gave a half-inhibitory concentration (IC50) of under 1000 nM.

For `COc1c(Nc2cc(C)[nH]n2)nc(Sc2ccc(NC(C)=O)cc2)nc1N1CCC(F)(F)CC1`, the IC50 was under 1000 nM.

As to `COc1c(Nc2cc(C)[nH]n2)nc(Sc2ccc(NC(C)=O)cc2)nc1N1CCC(F)CC1`, the concentration for half-maximal inhibition (IC50) is under 1000 nM.

Consider `COc1c(Nc2cc(C)[nH]n2)nc(Sc2ccc(NC(C)=O)cc2)nc1N1CCC(O)CC1`, for which the IC50 was under 1000 nM.

In turn, `COc1c(Nc2cc(C)[nH]n2)nc(Sc2ccc(NC(C)=O)cc2)nc1N1CC=CCC1` returned an IC50 of under 1000 nM.

Turning to `COc1c(Nc2cc(C)[nH]n2)nc(Sc2ccc(NC(C)=O)cc2)nc1N1CC=C(F)CC1`, the concentration for half-maximal inhibition (IC50) was under 1000 nM.

Regarding `COc1c(Nc2cc(C)[nH]n2)nc(Sc2ccc(NC(C)=O)cc2)nc1N1CCC(C(C)=O)CC1`, the IC50 is under 1000 nM.

As for `COc1c(Nc2cc(C)[nH]n2)nc(Sc2ccc(NC(C)=O)cc2)nc1N1CCC(N)CC1`, the IC50 was under 1000 nM.

Take `COc1c(Nc2cc(C)[nH]n2)nc(Sc2ccc(NC(C)=O)cc2)nc1N1CCC(N(C)C)CC1`: the IC50 is under 1000 nM.

As to `CC(=O)Nc1ccc(Sc2nc(Nc3cc(C)[nH]n3)c(C)c(N3CCC(CCN(C)C)CC3)n2)cc1`, the IC50 is under 1000 nM.

The compound `COc1c(Nc2cc(C)[nH]n2)nc(Sc2ccc(NC(C)=O)cc2)nc1N1CCCCC1C` (centres unmarked) came in with an IC50 of 100 to 1000 nM.

Compound `CCN1CCN(c2nc(Sc3ccc(NC(C)=O)cc3)nc(Nc3cc(C)[nH]n3)c2OC)CC1` came in with an IC50 of under 1000 nM.

Compound `COc1c(Nc2cc(C)[nH]n2)nc(Sc2ccc(NC(C)=O)cc2)nc1N1CCN(C(=O)C(C)C)CC1` showed an IC50 of under 1000 nM.

Regarding `CCC(=O)N1CCN(c2nc(Sc3ccc(NC(C)=O)cc3)nc(Nc3cc(C)[nH]n3)c2OC)CC1`, the IC50 was under 1000 nM.

In the case of `COc1c(Nc2cc(C)[nH]n2)nc(Sc2ccc(S(=O)(=O)Cc3ccccc3)cc2)nc1N1CCN(C2CCN(C)CC2)CC1`, the IC50 is under 1000 nM.
